{"source": "patent US7943577B2", "about": "“Alpha-fetoprotein peptides and uses thereof” (Albany Medical College, priority 2001, dated 2011)", "key": {"[1]": {"tested_on": "small cell lung cancer HTB 184 cells", "assay": "PCNA and nuclear ERα immunoblot, HTB 184", "type": "cell-based, human", "design": "key to Total Nuclear Estrogen Receptor / PCNA accumulation: “+” indicates increase; “−” indicates decrease; “NC” indicates no change", "protocol": "(§1) Cell lines. Glioma cells: C6 cells were cultured in F-12K medium with 18% FBS. F98 cells and GL261 cells were cultured in DMEM with 10% FBS. Head and neck cancer: 22B cells were cultured in DMEM with 10% FBS. Papillary thyroid cancers: BHP2-7 cells and BHP18-21 cells were cultured in DMEM with 10% FBS. Small cell lung cancer: HTB184 cells were cultured in RPMI medium with 10% FBS. Breast cancers: MCF-7 cells were cultured in DMEM (w/o phenol red) with 5% FBS and MDA-MB cells were cultured in DMEM with 10% FBS. Colon cancer: Colo 205 cells were cultured in RPMI medium with 10% FBS. Ovarian cancer: OVCAR-3 cells were culture in RPMI medium with 20% FBS supplemented with insulin. Prostate cancers: LNCaP cells were cultured in RPMI medium with 10% FBS. DU145 cells were cultured in MEM with 10% FBS and PC3 cells were cultured in F-12 medium with 10% FBS. Cervical cancer: HeLa cells were cultured in MEM with 10% FBS. Melanoma cells were cultured in DMEM with 10% FBS. These conditions were determined to maintain cellular production of proliferating cell nuclear antigen (PCNA) at high levels immediately prior to study of AFP-related peptide. All cell cultures were maintained in a 5% CO2/95% O2 incubator at 37 C. Cell fractionation. Fractionation in a microfuge and preparation of nucleoproteins was by our previously reported methods (1-3). Nuclear extracts were prepared by resuspension of the crude nuclei in high salt buffer (hypotonic buffer with 420 mM NaCl and 20% glycerol) at 4° C. with rocking for 1 hr. The supernatants were collected after subsequent centrifugation at 4° C. and 13,000 rpm for 10 min. Immunoblotting. The techniques are standard and have been described in a number of our publications (1-3). In brief, nucleoproteins were separated on discontinuous SDS-PAGE and then transferred by electroblotting to nitocellulose membranes (Millipore, Bedford, Mass.). […] Immunoreactive proteins are detected by chemiluminescence."}, "[2]": {"tested_on": "BHP 18-21 papillary thyroid cancer cells", "assay": "PCNA and nuclear ERα immunoblot, BHP 18-21", "type": "cell-based", "design": "key: “+” indicates increase; “−” indicates decrease; “NC” indicates no change", "protocol": "as §1, with “(1-3).” for “(1-3). Nuclear extracts were prepared by resuspension of the crude nuclei in high salt buffer (hypotonic buffer with 420 mM NaCl and 20% glycerol) at 4° C. with rocking for 1 hr. The supernatants were collected after subsequent centrifugation at 4° C. and 13,000 rpm for 10 min. Immunoblotting. The techniques are standard and have been described in a number of our publications (1-3). In brief, nucleoproteins were separated on discontinuous SDS-PAGE and then transferred by electroblotting to nitocellulose membranes (Millipore, Bedford, Mass.).”"}, "[3]": {"tested_on": "colon cancer (Colo 205) cells", "assay": "PCNA and nuclear ERα immunoblot, Colo 205", "type": "cell-based, human", "design": "key to Total Nuclear Estrogen Receptor / PCNA accumulation: “+” indicates increase; “−” indicates decrease; “NC” indicates no change", "protocol": "as §1"}, "[4]": {"tested_on": "BHP 2-7 papillary thyroid cancer cells", "assay": "PCNA and nuclear ERα immunoblot, BHP 2-7", "type": "cell-based", "design": "key to Total Nuclear Estrogen Receptor / PCNA accumulation: “+” indicates increase; “−” indicates decrease; “NC” indicates no change", "protocol": "as §1"}, "[5]": {"tested_on": "DU145 prostate carcinoma cells", "assay": "PCNA and nuclear ERα immunoblot, DU145", "type": "cell-based, human", "design": "key to Total Nuclear Estrogen Receptor / PCNA accumulation: “+” indicates increase; “−” indicates decrease; “NC” indicates no change", "protocol": "as §1"}, "[6]": {"tested_on": "ovarian cancer OVCAR-3 cells", "assay": "PCNA and nuclear ERα immunoblot, OVCAR-3", "type": "cell-based", "design": "key to Total Nuclear Estrogen Receptor / PCNA accumulation: “+” indicates increase; “−” indicates decrease; “NC” indicates no change", "protocol": "as §1"}, "[7]": {"tested_on": "cancer cell lines", "assay": "PCNA and nuclear ERα immunoblot, summary over cancer cell lines", "type": "cell-based", "details": "E2 1×10^−9 M", "protocol": "as §1"}, "[8]": {"tested_on": "melanoma cells", "assay": "PCNA and nuclear ERα immunoblot, melanoma", "type": "cell-based, human", "design": "key to Total Nuclear Estrogen Receptor / PCNA accumulation: “+” indicates increase; “−” indicates decrease; “NC” indicates no change", "protocol": "Cell lines. Glioma cells: C6 cells were cultured in F-12K medium with 18% FBS. F98 cells and GL261 cells were cultured in DMEM with 10% FBS. Head and neck cancer: 22B cells were cultured in DMEM with 10% FBS. Papillary thyroid cancers: BHP2-7 cells and BHP18-21 cells were cultured in DMEM with 10% FBS. Small cell lung cancer: HTB184 cells were cultured in RPMI medium with 10% FBS. Breast cancers: MCF-7 cells were cultured in DMEM (w/o phenol red) with 5% FBS and MDA-MB cells were cultured in DMEM with 10% FBS. Colon cancer: Colo 205 cells were cultured in RPMI medium with 10% FBS. Ovarian cancer: OVCAR-3 cells were culture in RPMI medium with 20% FBS supplemented with insulin. Prostate cancers: LNCaP cells were cultured in RPMI medium with 10% FBS. DU145 cells were cultured in MEM with 10% FBS and PC3 cells were cultured in F-12 medium with 10% FBS. Cervical cancer: HeLa cells were cultured in MEM with 10% FBS. Melanoma cells were cultured in DMEM with 10% FBS. These conditions were determined to maintain cellular production of proliferating cell nuclear antigen (PCNA) at high levels immediately prior to study of AFP-related peptide. All cell cultures were maintained in a 5% CO2/95% O2 incubator at 37 C. Cell fractionation. Fractionation in a microfuge and preparation of nucleoproteins was by our previously reported methods (1-3). Nuclear extracts were prepared by resuspension of the crude nuclei in high salt buffer (hypotonic buffer with 420 mM NaCl and 20% glycerol) at 4° C. with rocking for 1 hr. The supernatants were collected after subsequent centrifugation at 4° C. and 13,000 rpm for 10 min. Immunoblotting. The techniques are standard and have been described in a number of our publications (1-3). In brief, nucleoproteins were separated on discontinuous SDS-PAGE and then transferred by electroblotting to nitocellulose membranes (Millipore, Bedford, Mass.). After blocking with 5% milk in Tris-buffered saline containing 0.1% Tween, the membranes were incubated with either mouse anti-human PCNA (Santa Cruz Biotech., Santa Cruz, Calif.) or mouse anti-human ER antibody (Santa Cruz) overnight. Secondary antibody was rabbit anti-mouse IgG (1:1000)(Dako), depending upon the origin of the primary antibody. Immunoreactive proteins are detected by chemiluminescence."}, "[9]": {"tested_on": "HeLa cervical cancer cells", "assay": "PCNA and nuclear ERα immunoblot, HeLa", "type": "cell-based", "design": "key to Total Nuclear Estrogen Receptor / PCNA accumulation: “+” indicates increase; “−” indicates decrease; “NC” indicates no change", "protocol": "as §1"}, "[10]": {"tested_on": "head and neck 22B cancer cells", "assay": "PCNA and nuclear ERα immunoblot, 22B", "type": "cell-based, human", "design": "key to Total Nuclear Estrogen Receptor / PCNA accumulation: “+” indicates increase; “−” indicates decrease; “NC” indicates no change", "protocol": "as §1"}, "[11]": {"tested_on": "F98 glioma cells", "assay": "PCNA and nuclear ERα immunoblot, F98", "type": "cell-based, murine", "design": "key to Total Nuclear Estrogen Receptor / PCNA accumulation: “+” indicates increase; “−” indicates decrease; “NC” indicates no change", "protocol": "as §1"}, "[12]": {"tested_on": "PC3 prostate carcinoma cells", "assay": "PCNA and nuclear ERα immunoblot, PC3", "type": "cell-based, human", "design": "key to Total Nuclear Estrogen Receptor / PCNA accumulation: “+” indicates increase; “−” indicates decrease; “NC” indicates no change", "protocol": "as §1"}, "[13]": {"tested_on": "C6 glioma cells", "assay": "PCNA and nuclear ERα immunoblot, C6", "type": "cell-based, murine", "design": "key to Total Nuclear Estrogen Receptor / PCNA accumulation: “+” indicates increase; “−” indicates decrease; “NC” indicates no change", "protocol": "as §1"}, "[14]": {"details": "HTB 184 (Small Cell Lung Cancer)"}, "[15]": {"details": "BHP 2-7 (Papillary Thyroid Cancer)"}}, "data": [{"compound": "C[C@]12CC[C@@H]3c4ccc(O)cc4CC[C@H]3[C@@H]1CC[C@@H]2O", "note": "[E2, 17β-estradiol]", "values": [{"measurement": "PCNA accumulation", "setting": "[1]; [14]", "result": "+"}, {"measurement": "Total Nuclear Estrogen Receptor", "setting": "[1]; [14]", "result": "+"}, {"measurement": "nuclear ERα", "setting": "[1]; HTB 184, 10^−9M E2 or 10^−6 M AFP-peptide, 24 h", "result": "increased nuclear ERα accumulation"}, {"measurement": "PCNA accumulation", "setting": "[2]", "result": "+"}, {"measurement": "Total Nuclear Estrogen Receptor", "setting": "[2]", "result": "+"}, {"measurement": "PCNA accumulation", "setting": "[3]; Colo205 (Colon Cancer)", "result": "NC"}, {"measurement": "Total Nuclear Estrogen Receptor", "setting": "[3]; Colo205 (Colon Cancer)", "result": "NC"}, {"measurement": "nuclear ERα", "setting": "[3]; Colo 205, 10^−9 M E2 or 10^−7 M AFP-peptide, 24 h", "result": "did not increase nuclear accumulation of ER"}, {"measurement": "PCNA accumulation", "setting": "[4]; [15]", "result": "+"}, {"measurement": "Total Nuclear Estrogen Receptor", "setting": "[4]; [15]", "result": "+"}, {"measurement": "nuclear ERα", "setting": "[4]; BHP 2-7, 10^−9 M E2 or 10^−7 M AFP-peptide, 24 h", "result": "increased nuclear accumulation of ERα"}, {"measurement": "PCNA accumulation", "setting": "[5]; DU 145 (Prostate Cancer)", "result": "−"}, {"measurement": "Total Nuclear Estrogen Receptor", "setting": "[5]; DU 145 (Prostate Cancer)", "result": "−"}, {"measurement": "nuclear ERα", "setting": "[5]; DU145, 10^−9 M E2 or 10^−6 M AFP-peptide, 24 h", "result": "did not increase nuclear accumulation of ERα"}, {"measurement": "PCNA accumulation", "setting": "[6]; OVCAR-3 (Ovarian Cancer)", "result": "+"}, {"measurement": "Total Nuclear Estrogen Receptor", "setting": "[6]; OVCAR-3 (Ovarian Cancer)", "result": "NC"}, {"measurement": "nuclear ERα", "setting": "[6]; OVCAR-3, 10^−9 M E2 or 10^−7M AFP-peptide, 24 h", "result": "did not increase nuclear accumulation of ERα"}, {"measurement": "total nuclear accumulation of ERα", "setting": "[7]; 24 hr, C6, F98, GL261, 22B, BHP 2-7, BHP 18-21, HTB 184, MCF-7 and HeLa cells", "result": "increased total nuclear accumulation of estrogen receptor-α (ERα)"}, {"measurement": "total nuclear ERα", "setting": "[7]; MDA-MB, Colo205, OVCAR-3, LNCaP, and PC3 cells", "result": "no significant change in total nuclear ERα"}, {"measurement": "total nuclear ERα", "setting": "[7]; melanoma cells", "result": "decreased the total nuclear ERα"}, {"measurement": "PCNA accumulation", "setting": "[8]; Melanoma (Skin Cancer)", "result": "−"}, {"measurement": "Total Nuclear Estrogen Receptor", "setting": "[8]; Melanoma (Skin Cancer)", "result": "−"}, {"measurement": "nuclear ERα", "setting": "[8]; melanoma, 10^−9 M E2 or 10^−6M AFP-peptide, 24 h", "result": "decrease nuclear ERα accumulation"}, {"measurement": "PCNA accumulation", "setting": "[8]; melanoma, AFP-peptide 10^−9 to 10^−7 M (left panel), 10^−9 M E2 or 10^−6M AFP-peptide (right panel), 24 h", "result": "reduce PCNA"}, {"measurement": "PCNA accumulation", "setting": "[9]; HeLa (Cervical Cancer)", "result": "+"}, {"measurement": "Total Nuclear Estrogen Receptor", "setting": "[9]; HeLa (Cervical Cancer)", "result": "+"}, {"measurement": "nuclear ERα", "setting": "[9]; HeLa, 10^−9M E2 or 10^−7 M AFP-peptide, 24 h", "result": "Neither E2 or AFP-peptide decreased nuclear accumulation of ERα"}, {"measurement": "PCNA accumulation", "setting": "[10]; 22B (Head Neck Cancer)", "result": "+"}, {"measurement": "Total Nuclear Estrogen Receptor", "setting": "[10]; 22B (Head Neck Cancer)", "result": "+"}, {"measurement": "nuclear ERα", "setting": "[10]; 22B, 10^−9M E2 or 10^−7 M AFP-peptide, 24 h", "result": "increased nuclear accumulation of ERα"}, {"measurement": "PCNA accumulation", "setting": "[11]; F98 (Glioma)", "result": "+"}, {"measurement": "Total Nuclear Estrogen Receptor", "setting": "[11]; F98 (Glioma)", "result": "+"}, {"measurement": "nuclear ERα", "setting": "[11]; F98, 10^−9 M E2 or 10^−6 M AFP-peptide, 24 h", "result": "increased nuclear accumulation of ERα"}, {"measurement": "PCNA accumulation", "setting": "[12]; PC 3 (Prostate Cancer)", "result": "−"}, {"measurement": "Total Nuclear Estrogen Receptor", "setting": "[12]; PC 3 (Prostate Cancer)", "result": "NC"}, {"measurement": "nuclear ERα", "setting": "[12]; PC3, 10^−9 M E2 or 10^−6 M AFP-peptide, 24 h", "result": "did not increase nuclear accumulation of ERα"}, {"measurement": "PCNA accumulation", "setting": "[13]; C6 (Glioma)", "result": "+"}, {"measurement": "Total Nuclear Estrogen Receptor", "setting": "[13]; C6 (Glioma)", "result": "+"}, {"measurement": "nuclear ERα", "setting": "[13]; C6, 10^−9 M E2 or 10^−6 M AFP-peptide, 24 h", "result": "increased nuclear accumulation of ERα"}]}]}
